According to patent publication US20230340127A1, “METHODS AND COMPOSITIONS FOR CANCER TREATMENT BY INHIBITION OF FBXO44” (Sanford Burnham Prebys Medical Discovery Institute, priority 2022, published 2023):

Key:
[1] = test system: cancer cell lines and patient-derived glioblastoma cultures; assay: Viability of cancer cells after F5446 treatment; format: cell-based, human; conditions: F5446 for 48 hrs (FIG. 9G)
Experimental: Cell lines and culture conditions: all cancer cell lines were purchased from the American Tissue Culture Collection (ATCC) and grown in recommended culture media. Specifically, MDA-MB-231, BT-549, MCF7, A549, and H446 cells were cultured in RPMI 1640 (Corning), HEK293T, HEK293FT, and HeLa cells were cultured in DMEM (Corning), MDA-MB-231-luc cells were cultured in MEM (Corning), U2OS and HCT116 cells were cultured in McCoy's 5A (Corning). The above media were supplemented with 10% fetal bovine serum (FBS), 2 mM glutamine, and 100 U/mL penicillin and streptomycin. Patient-derived glioma stem cells (GSCs) were obtained (Xie et al., 2018) and cultured in Neurobasal medium (Thermo Fisher Scientific, #11360070) supplemented with B27 without vitamin A (Thermo Fisher Scientific, #A3353501), EGF, and bFGF (20 ng/mL each; R&D Systems), sodium pyruvate (Thermo Fisher Scientific, #11360070), and GlutaMAX (Thermo Fisher Scientific, #35050061). All cells were incubated at 37° C. in 5% CO2. The cell cultures were authenticated by short tandem repeat (STR) analysis.
To assess whether this epigenetic regulatory pathway could potentially be targeted for cancer treatment, SUV39H1 and its chemical inhibitor F5446 were used to perform experiments. IF, qRT-PCR, and growth curve experiments were performed as described in previous examples. […]

4T1 tumors = assay: 4T1 mammary tumors in syngeneic immunocompetent mice, F5446 plus anti-PD-1 antibody; format: in vivo, mouse
Experimental: 4T1 tumor experiment: 10^5 4T1 cells were inoculated into the mammary fat pads of 6- to 8-week-old female BALB/c mice (The Jackson Laboratory). Tumor size was measured twice weekly. After 22 days, mice were euthanized and portions of each tumor processed for flow cytometry and histological analysis. For antibody treatments, mice were administered 200 μg rat IgG2a isotype control (BioXCell no. BP0089) or anti-PD-1 (BioXCell no. BP0273) antibody via i.p. injection on days 15, 17, 19, 21 and 23 post-inoculation of 4T1 cells. For combination treatments, mice were administered vehicle (10% Cremophor EL in PBS) or F5446 at 10 mg/kg body weight via i.p. injection on days 12, 14, 16, 18, 20, and 22 post-inoculation of cells and administered 200 μg rat IgG2a isotype (control) or anti-PD-1 antibody via i.p. injection on days 15, 17, 19, 21, and 23 post-inoculation of 4T1 cells. Mouse survival was monitored with tumor volume exceeding 2000 mm^3, weight loss>20%, and decreasing behavioral conditions considered as endpoints.
To investigate the effects of pharmacologically targeting SUV39H1, F5446, on tumor growth and immunotherapy response, experiments using mouse model were performed as described in previous examples. Mice were also treated with F5446. Growth curve, survival curve, IHC, and qRT-PCR experiments were performed as described in previous examples.

[2] = test system: MDA-MB-231-luc-derived mammary tumors; assay: MDA-MB-231-luc orthotopic mammary tumors in immunodeficient mice treated with F5446; format: in vivo, mouse
Experimental: Animal studies: mice were maintained under pathogen free conditions in 14 hrs light/10 hrs dark cycle with ad libitum access to food and water. All animal handling and procedures used were performed in accordance with protocols approved by the Institutional Animal Care and Use Committee of SBP or UCSD. For intracardiac injections, 10^5 MDA-MB-231-luc cells transduced with lentivirus expressing non-targeting or FBXO44 shRNAs were resuspended in 100 μL DPBS and injected into the left ventricle of 6-week old female athymic nude mice (Envigo no. 069) anesthetized with isoflurane. Metastatic seeding was monitored weekly by intraperitoneal (i.p.) injection of 100 μL of 30 mg/mL D-Luciferin (Xenogen no.)CR-1001) 10 min prior to imaging using the IVIS Spectrum Xenogen Imaging System (Caliper Life Sciences). Images were analyzed using Living Image 3.0 software (Caliper Life Sciences). For ex vivo imaging of tissues, mice were injected with D-Luciferin prior to euthanasia, tissues harvested and placed in 24-well tissue culture plates containing 1 mL of 0.3 mg/mL D-Luciferin and imaged. Organs/tissues were fixed in 10% formalin and subjected to hematoxylin and eosin staining. For orthotopic injections of NSG mice, 3×10^6 MDA-MB-231-luc cells were suspended in 100 μL of PBS and injected into the mammary fat pads of 4- to 6-week-old female mice. For F5446 drug treatments, mice were randomly divided into 3 groups at day 12. The mice were administered vehicle (10% Cremophor EL in PBS) or F5446 at doses of 10 and 20 mg/kg body weight via i.p. injection on days 12, 14, 17, 19, 21 and 24 post-inoculation of cells. Tumor size was measured every 4-5 days (long diameter and short diameter) with a caliper and tumor volume calculated as 0.5×length×width×width. Mice were imaged weekly to monitor tumor growth and metastasis in vivo using an IVIS Spectrum Xenogen Imaging System (Caliper Life Sciences). All mice were euthanized at day 25 except 3 mice were taken out from each group for tumor IHC staining of γH2AX and cleaved Caspase 3 and quantitative RT-PCR analysis at day 21. […]

In the case of `COC(=O)c1cc2c(n1S(=O)(=O)c1ccc(Cl)cc1)C(=O)C(=O)c1[nH]cc(C(=O)OCc3ccccc3)c1-2` [F5446], the “survival of cancer cell lines and patient-derived glioblastoma cultures” value [1] is reported as “reduced”, the “sensitivity of 4T1 tumors to anti-PD-1 therapy” value (4T1 tumors; F5446 10 mg/kg i.p. combined with 200 μg anti-PD-1 antibody i.p. (FIGS. 12M-12O)) is reported as “enhanced” and the mouse survival (4T1 tumors; F5446 combined with anti-PD-1 therapy, 4T1 tumors (FIG. 12O)) is reported as “increased”. For the same molecule, the “γH2AX and cleaved Caspase 3 in tumors” value ([2]; IHC of F5446-treated tumors (FIG. 12K)) was “dose-dependent increase”, the mammary tumor growth ([2]; immunocompromised mice, 10 and 20 mg/kg i.p. (FIGS. 12H-12J)) was “inhibited mammary tumor growth in immunocompromised mice in a dose-dependent manner” and the “expression of REs, IFN α/β, and ISGs in tumors” value ([2]; qRT-PCR of F5446-treated tumors (FIG. 12L)) was “upregulated”.
